Experimental data as given in ChEMBL document CHEMBL1201862, “PubChem BioAssay data set” (2004).
The source made the active and inactive calls.

Assays:
Genome polyprotein [1] = target: Genome polyprotein (Hepatitis C virus, UniProt Q2Q167); assay: HCV core protein dimerization inhibitors, dose response, biochemical, TR-FRET (AID 2159); design: species or system Hepacivirus hominis;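 further: blocks dimerization of HCV core protein measured by TR-FRET between tagged core106 pairs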
[2] = target: Sphingosine 1-phosphate receptor 2 (Homo sapiens, UniProt O95136); assay: Dose Response Cell Based Assay for Agonists of the S1P2 Receptor. [Related pubchem assays: 729, 736, 843 ]; type: functional
Sequence of Sphingosine 1-phosphate receptor 2 (O95136 whole entry): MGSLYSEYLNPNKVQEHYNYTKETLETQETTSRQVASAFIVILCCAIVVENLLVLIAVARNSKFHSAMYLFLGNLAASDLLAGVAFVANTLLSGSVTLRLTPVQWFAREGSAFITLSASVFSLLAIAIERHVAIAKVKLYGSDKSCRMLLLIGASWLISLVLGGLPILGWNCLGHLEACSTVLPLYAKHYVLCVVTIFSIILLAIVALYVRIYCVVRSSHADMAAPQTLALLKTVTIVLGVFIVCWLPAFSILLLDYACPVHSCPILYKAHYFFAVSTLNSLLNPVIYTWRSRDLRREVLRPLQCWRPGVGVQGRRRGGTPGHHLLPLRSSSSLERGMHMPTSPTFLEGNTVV

[3] = target: Eukaryotic translation initiation factor 4E (Mus musculus, UniProt P63073); assay: eIF4E–eIF4G protein interaction inhibitors, dose response, biochemical, TR-FRET (AID 855); type: functional;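 further: potency for disrupting eIF4E binding to eIF4GI seen as loss of FRET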
Sequence of Eukaryotic translation initiation factor 4E (P63073 whole entry): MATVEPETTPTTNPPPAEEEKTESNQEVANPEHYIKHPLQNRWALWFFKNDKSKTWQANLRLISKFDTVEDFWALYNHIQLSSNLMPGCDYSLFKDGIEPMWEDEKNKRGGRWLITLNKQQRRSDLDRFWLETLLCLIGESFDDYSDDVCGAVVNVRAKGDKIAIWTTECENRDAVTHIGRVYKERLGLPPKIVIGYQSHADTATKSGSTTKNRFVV

[4] = target: Diphosphomevalonate decarboxylase (Streptococcus pneumoniae serotype 2 (strain D39 / NCTC 7466), UniProt Q9FD53); assay: S. pneumoniae DPM-DC inhibition retest, confirmation, biochemical, cuvette format, coupled NADH fluorescence (AID 1028); type: functional
Sequence of Diphosphomevalonate decarboxylase (Q9FD53 whole entry): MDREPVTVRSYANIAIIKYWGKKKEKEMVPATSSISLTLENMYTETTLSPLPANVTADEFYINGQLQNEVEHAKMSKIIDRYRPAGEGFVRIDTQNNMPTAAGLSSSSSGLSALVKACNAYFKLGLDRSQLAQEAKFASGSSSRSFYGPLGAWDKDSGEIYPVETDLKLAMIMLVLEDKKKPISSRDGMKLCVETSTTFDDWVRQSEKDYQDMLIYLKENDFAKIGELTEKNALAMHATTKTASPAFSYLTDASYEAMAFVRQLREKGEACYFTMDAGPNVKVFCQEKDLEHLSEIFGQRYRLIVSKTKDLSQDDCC

Aminopeptidase N = target: T1, Aminopeptidase N (Plasmodium falciparum FcB1/Columbia, UniProt O96935); assay: P. falciparum M1AAP inhibitors, biochemical, fluorogenic H-Leu-NHMec substrate, 1536-well (AID 1445); design: species or system Plasmodium falciparum 3D7, 3D7
T1 sequence (O96935 whole entry): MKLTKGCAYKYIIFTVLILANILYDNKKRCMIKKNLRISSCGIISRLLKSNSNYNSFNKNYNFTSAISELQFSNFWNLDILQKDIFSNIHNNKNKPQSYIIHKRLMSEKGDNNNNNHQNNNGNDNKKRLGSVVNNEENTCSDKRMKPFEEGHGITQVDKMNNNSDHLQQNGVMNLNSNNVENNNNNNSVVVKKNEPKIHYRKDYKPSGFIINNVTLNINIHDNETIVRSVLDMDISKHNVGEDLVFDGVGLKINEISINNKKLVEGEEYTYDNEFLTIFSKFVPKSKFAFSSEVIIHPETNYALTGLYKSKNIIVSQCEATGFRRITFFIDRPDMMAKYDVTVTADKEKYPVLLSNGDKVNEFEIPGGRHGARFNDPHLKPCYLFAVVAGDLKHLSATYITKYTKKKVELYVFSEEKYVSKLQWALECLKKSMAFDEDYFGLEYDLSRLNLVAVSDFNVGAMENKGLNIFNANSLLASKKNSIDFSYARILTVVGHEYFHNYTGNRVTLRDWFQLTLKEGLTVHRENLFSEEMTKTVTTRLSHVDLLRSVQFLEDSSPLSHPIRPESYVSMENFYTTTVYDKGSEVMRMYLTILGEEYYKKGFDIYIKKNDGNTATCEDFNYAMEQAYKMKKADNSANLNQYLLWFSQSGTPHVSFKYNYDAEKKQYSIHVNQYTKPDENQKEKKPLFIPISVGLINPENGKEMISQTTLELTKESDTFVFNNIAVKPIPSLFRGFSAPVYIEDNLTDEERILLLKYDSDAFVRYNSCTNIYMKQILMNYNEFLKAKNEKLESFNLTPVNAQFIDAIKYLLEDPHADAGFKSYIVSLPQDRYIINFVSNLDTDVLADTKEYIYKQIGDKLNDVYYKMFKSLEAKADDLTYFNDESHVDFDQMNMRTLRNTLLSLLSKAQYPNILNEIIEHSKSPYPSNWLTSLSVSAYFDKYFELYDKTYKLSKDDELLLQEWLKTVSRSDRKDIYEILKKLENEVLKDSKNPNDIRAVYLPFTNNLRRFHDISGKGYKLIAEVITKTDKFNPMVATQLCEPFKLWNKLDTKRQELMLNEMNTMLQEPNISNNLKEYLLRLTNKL

[5] = target: Bifunctional protein GlmU (Mycobacterium tuberculosis, UniProt P9WMN3); assay: Inhibitors of Mycobacterial Glucosamine-1-phosphate acetyl transferase (GlmU). Secondary screen.; design: species or system Mycobacterium tuberculosis H37Rv
Sequence of Bifunctional protein GlmU (P9WMN3 whole entry): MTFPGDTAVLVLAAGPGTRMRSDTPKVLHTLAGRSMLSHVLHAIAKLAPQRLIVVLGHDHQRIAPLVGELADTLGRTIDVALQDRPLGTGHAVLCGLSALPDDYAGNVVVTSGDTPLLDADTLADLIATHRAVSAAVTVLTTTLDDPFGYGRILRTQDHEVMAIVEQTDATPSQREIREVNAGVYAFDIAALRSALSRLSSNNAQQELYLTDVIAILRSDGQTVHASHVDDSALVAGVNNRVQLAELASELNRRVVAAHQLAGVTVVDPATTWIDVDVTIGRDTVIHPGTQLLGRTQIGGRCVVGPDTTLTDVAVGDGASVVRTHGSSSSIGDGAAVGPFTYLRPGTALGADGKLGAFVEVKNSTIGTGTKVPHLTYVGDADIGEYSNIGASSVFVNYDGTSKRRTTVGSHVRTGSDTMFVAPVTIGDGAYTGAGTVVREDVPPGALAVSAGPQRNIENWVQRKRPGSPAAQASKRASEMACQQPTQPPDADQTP

Genome polyprotein [6] = target: Genome polyprotein (dengue virus type 2, UniProt P29990); assay: Dengue-2 NS5 methyltransferase inhibitors, primary screen, biochemical, confirmation dose response (AID 588689); type: functional
Sequence of Genome polyprotein (dengue virus type 2, UniProt P29990) (P29990 2492-3391 limits assumed): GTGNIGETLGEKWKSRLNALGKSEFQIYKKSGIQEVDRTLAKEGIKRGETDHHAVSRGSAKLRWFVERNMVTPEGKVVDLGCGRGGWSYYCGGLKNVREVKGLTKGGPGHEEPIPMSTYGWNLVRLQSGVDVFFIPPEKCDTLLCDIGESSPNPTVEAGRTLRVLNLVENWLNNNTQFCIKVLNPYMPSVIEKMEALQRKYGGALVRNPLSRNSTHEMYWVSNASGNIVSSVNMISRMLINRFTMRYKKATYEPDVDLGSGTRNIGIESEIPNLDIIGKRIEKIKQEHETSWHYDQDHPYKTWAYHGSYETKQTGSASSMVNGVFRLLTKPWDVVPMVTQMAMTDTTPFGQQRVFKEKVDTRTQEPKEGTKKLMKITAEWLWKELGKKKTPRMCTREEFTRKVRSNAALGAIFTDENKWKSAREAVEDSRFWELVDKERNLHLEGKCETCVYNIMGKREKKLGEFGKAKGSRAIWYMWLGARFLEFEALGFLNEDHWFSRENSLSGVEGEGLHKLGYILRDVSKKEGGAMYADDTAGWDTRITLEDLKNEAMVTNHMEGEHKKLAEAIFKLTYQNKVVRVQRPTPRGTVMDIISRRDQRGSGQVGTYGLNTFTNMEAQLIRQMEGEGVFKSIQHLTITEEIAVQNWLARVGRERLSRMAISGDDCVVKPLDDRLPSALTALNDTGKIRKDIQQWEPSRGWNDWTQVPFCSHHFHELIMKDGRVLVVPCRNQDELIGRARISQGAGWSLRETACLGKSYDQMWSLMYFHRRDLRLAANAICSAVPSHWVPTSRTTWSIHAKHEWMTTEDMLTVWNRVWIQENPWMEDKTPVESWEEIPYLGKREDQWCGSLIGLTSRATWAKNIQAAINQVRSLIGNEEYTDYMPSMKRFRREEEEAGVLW

[7] = target: T2, Replicative DNA helicase DnaB (Mycobacterium tuberculosis, UniProt P9WMR3); assay: DnaB intein splicing inhibitors, dose response, biochemical, cell-free fluorescence (AID 449749); type: functional
T2 sequence (P9WMR3 whole entry): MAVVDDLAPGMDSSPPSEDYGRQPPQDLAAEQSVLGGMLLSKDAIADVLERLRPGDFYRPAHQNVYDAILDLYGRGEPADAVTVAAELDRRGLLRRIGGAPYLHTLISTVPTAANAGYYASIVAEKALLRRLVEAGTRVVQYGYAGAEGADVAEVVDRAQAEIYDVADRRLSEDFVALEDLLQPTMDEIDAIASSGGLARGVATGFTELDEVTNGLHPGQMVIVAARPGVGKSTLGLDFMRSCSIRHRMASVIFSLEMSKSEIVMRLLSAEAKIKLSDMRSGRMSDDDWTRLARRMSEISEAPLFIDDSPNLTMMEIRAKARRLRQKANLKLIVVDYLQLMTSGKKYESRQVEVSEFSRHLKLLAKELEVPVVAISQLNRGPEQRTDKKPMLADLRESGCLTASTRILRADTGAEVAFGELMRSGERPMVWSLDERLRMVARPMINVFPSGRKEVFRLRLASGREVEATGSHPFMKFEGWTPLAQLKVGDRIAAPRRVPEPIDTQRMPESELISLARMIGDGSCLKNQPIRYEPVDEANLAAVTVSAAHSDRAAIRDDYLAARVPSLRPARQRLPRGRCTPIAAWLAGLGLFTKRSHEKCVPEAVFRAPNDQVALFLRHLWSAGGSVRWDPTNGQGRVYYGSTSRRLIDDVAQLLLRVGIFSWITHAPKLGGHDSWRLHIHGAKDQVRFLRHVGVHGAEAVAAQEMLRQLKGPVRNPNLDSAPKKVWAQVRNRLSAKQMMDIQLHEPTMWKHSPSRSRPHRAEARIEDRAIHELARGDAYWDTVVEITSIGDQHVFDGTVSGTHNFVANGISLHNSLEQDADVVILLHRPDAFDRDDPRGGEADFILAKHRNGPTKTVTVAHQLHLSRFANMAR

Protein RecA = target: T3, Protein RecA (Mycobacterium tuberculosis, UniProt P9WHJ3); assay: Fluorescence Cell-Free Homogeneous Dose Retest to Identify Inhibitors of RecA-Intein Splicing Activity. [Related pubchem assays (depositor defined):AID2097, AID2223, AID489010, AID492950]; type: functional
T3 sequence (P9WHJ3 whole entry): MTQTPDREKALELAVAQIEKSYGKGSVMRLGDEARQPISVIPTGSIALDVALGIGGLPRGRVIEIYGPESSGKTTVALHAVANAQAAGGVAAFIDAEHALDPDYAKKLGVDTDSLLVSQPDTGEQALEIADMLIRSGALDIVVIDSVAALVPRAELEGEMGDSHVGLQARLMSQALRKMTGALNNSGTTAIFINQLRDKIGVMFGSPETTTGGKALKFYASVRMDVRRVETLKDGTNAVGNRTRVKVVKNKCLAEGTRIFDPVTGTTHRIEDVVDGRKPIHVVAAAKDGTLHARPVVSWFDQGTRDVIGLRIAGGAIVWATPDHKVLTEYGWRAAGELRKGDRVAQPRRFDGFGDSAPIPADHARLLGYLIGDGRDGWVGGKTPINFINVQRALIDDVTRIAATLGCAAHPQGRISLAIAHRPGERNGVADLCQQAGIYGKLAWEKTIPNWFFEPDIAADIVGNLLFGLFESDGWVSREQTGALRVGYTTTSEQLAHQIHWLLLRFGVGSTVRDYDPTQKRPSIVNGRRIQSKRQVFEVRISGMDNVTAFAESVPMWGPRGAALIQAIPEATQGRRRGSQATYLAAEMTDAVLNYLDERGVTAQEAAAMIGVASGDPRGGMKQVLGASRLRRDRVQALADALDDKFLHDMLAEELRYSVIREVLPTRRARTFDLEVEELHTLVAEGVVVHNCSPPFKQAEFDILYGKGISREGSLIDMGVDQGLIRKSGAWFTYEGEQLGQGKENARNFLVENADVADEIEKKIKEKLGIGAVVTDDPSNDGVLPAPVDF

[8] = target: Peroxisome proliferator-activated receptor gamma/Nuclear receptor coactivator 1 (Homo sapiens, UniProt P37231); assay: TR-FRET dose response biochemical High Throughput Screening assay for agonists of the steroid receptor coactivator 1 (SRC-1) recruitment by the peroxisome proliferator-activated receptor gamma (PPAR gamma): non-selective agonists. [Related pubchem assays (depositor defined):AID1300, AID1808, AID504735, AID631]; type: protein assay
[9] = target: Peroxisome proliferator-activated receptor gamma/Nuclear receptor coactivator 2 (Homo sapiens, UniProt P37231); assay: TR-FRET dose response biochemical High Throughput Screening assay for agonists of the steroid receptor coactivator 2 (SRC-2) recruitment by the peroxisome proliferator-activated receptor gamma (PPAR gamma): non-selective agonists. [Related pubchem assays: 1297, 1032 ]; type: functional
[10] = target: Peroxisome proliferator-activated receptor gamma/Nuclear receptor coactivator 3 (Homo sapiens, UniProt P37231); assay: TR-FRET dose response biochemical High Throughput Screening assay for agonists of the steroid receptor coactivator 3 (SRC-3) recruitment by the peroxisome proliferator-activated receptor gamma (PPAR gamma): non-selective agonists. [Related pubchem assays: 1301 (Confirmation screen.), 1048 (Primary screen.)]; type: functional
[11] = target: Mitogen-activated protein kinase 10 (Homo sapiens, UniProt P53779); assay: Dose response biochemical screening assay for inhibitors of c-Jun N-Terminal Kinase 3 (JNK3). [Related pubchem assays: 746 ]
Sequence of Mitogen-activated protein kinase 10 (P53779 whole entry): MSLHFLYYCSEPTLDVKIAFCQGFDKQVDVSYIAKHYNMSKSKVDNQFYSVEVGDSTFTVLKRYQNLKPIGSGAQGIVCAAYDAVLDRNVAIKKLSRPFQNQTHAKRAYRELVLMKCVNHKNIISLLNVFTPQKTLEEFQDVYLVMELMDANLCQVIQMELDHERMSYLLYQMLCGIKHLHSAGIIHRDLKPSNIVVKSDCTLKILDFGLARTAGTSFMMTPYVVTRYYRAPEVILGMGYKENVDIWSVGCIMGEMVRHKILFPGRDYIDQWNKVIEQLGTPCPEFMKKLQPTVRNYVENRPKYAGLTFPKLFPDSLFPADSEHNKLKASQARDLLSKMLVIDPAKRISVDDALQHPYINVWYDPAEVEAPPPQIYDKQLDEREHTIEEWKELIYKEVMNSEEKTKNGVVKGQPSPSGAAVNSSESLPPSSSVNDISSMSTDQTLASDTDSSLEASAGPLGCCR

Estrogen receptor = target: T4, Estrogen receptor (Homo sapiens, UniProt P03372);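 further: potency for inhibiting coactivator peptide recruitment to the receptor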
T4 sequence (P03372 whole entry): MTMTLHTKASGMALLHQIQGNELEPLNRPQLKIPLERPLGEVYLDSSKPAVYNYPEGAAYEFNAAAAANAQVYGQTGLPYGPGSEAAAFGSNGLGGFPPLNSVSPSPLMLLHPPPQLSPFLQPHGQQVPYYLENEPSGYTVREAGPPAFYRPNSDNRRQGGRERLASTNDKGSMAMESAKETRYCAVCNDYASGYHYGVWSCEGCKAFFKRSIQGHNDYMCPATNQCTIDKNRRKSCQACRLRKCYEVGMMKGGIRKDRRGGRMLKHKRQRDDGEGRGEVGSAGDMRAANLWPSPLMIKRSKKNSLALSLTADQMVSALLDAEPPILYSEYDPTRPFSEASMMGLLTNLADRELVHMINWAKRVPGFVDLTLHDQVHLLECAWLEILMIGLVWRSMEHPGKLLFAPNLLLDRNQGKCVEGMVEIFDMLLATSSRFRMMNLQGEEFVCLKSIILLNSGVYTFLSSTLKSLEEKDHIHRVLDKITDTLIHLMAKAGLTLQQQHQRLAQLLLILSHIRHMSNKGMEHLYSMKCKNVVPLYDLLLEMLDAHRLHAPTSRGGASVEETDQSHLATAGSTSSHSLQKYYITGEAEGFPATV

[12] = target: Tyrosine-protein phosphatase non-receptor type 7 (Homo sapiens, UniProt P35236); assay: inhibitors of human HePTP phosphatase, […], biochemical, absorbance, leukemia target (AID 521); type: functional
Sequence of Tyrosine-protein phosphatase non-receptor type 7 (P35236 whole entry): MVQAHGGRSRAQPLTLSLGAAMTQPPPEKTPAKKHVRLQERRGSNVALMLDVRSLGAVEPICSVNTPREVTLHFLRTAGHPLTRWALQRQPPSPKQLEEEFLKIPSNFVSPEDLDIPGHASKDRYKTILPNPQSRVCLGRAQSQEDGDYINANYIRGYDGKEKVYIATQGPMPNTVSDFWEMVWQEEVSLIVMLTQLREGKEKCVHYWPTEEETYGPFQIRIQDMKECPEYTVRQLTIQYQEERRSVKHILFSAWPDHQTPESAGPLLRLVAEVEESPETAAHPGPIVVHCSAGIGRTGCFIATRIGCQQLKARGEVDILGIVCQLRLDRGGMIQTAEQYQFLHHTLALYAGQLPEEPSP

NS3 = NS3 (Hepatitis C virus, UniProt A3EZJ3); assay: HCV NS3 helicase inhibitor potency, dose response, biochemical, fluorescence polarization, ChemBridge library (AID 743264)
Sequence of NS3 (A3EZJ3 whole entry, the tested form may be a part): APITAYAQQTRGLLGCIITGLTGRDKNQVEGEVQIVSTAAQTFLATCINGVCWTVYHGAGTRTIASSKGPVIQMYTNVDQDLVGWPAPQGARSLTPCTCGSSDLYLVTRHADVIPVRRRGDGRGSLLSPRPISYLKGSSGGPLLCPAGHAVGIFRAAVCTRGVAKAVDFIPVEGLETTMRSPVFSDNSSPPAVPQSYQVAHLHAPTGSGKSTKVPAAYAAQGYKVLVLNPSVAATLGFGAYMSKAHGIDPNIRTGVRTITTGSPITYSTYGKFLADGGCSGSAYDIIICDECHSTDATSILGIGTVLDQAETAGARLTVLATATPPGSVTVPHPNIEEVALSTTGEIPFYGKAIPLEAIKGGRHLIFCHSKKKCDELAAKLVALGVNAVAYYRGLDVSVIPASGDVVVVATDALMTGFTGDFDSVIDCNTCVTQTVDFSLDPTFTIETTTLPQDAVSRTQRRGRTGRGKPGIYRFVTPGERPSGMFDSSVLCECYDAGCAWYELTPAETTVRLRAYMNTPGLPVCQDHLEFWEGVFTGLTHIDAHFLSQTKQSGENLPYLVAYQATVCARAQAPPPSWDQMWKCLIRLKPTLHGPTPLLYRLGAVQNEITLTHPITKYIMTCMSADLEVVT

[13] = target: T5, RNA-binding protein pos-1 (Caenorhabditis elegans, UniProt G5EF15); assay: inhibitors of POS-1/mex-3 RNA binding, dose response, biochemical, fluorescence polarization (AID 1964);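 further: purified POS-1 fused to maltose binding protein made in E. coli; potency of compounds blocking POS-1 binding to fluorescent RNA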
T5 sequence (G5EF15 whole entry): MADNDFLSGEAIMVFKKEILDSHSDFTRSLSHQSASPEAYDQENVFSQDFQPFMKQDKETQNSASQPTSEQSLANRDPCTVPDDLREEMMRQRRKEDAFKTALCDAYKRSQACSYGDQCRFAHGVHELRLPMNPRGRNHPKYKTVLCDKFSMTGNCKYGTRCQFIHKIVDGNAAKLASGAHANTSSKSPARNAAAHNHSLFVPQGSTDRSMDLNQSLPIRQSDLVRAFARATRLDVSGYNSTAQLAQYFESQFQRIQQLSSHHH

[14] = target: T6, Zinc finger protein mex-5 (Caenorhabditis elegans, UniProt Q9XUB2); assay: MEX-5/TCR-2 RNA interaction inhibitors, dose response, biochemical, C. elegans, fluorescence polarization (AID 1960)
T6 sequence (Q9XUB2 whole entry): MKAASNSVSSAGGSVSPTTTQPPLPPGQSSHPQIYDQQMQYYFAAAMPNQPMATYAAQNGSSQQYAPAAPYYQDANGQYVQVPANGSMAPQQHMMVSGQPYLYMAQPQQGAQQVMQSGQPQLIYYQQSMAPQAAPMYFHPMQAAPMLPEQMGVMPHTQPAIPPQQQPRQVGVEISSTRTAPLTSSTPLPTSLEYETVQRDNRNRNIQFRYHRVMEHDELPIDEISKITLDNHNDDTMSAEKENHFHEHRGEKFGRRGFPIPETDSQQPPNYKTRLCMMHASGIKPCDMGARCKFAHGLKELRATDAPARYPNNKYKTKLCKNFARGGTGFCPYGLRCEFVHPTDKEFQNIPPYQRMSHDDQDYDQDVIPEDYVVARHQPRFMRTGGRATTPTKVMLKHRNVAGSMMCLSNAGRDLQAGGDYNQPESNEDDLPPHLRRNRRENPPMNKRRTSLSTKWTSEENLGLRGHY

Sequence of Genome polyprotein (Hepatitis C virus, UniProt Q2Q167) (Q2Q167 whole entry): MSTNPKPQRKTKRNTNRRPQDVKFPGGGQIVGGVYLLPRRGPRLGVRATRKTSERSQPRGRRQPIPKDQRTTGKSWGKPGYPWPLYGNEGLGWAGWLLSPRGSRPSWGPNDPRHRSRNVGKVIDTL

Structure (SMILES): Cc1ccc(-c2nc(=S)c3c(n2Cc2ccco2)CC(C)(C)OC3)cc1
- IC50 (Genome polyprotein [1]): > 49.8 µM (not active)

Structure (SMILES): CCOc1cccc(OCCCCn2ccnc2)c1
- EC50 [2]: > 50 µM (not active)
- IC50 [3]: > 64 µM (inactive)

Structure (SMILES): O=C(c1ccc(-n2sc3ccccc3c2=O)cc1)N1CCCC1
- IC50 [4]: 8.66 µM (active)

Structure (SMILES): CC1=NN(c2ccc(Cl)c(C(=O)O)c2)C(=O)/C1=C\c1ccc(-c2ccc(C(=O)O)cc2)o1
- IC50 (Aminopeptidase N): 2.41 µM (active)
- IC50 [5]: 94.1 µM (active)
- IC50 (Genome polyprotein [6]): 19.4 µM (active)
- AC50 [7]: 0.484 µM (active)
- EC50 (Protein RecA): 0.4 µM (active)

Structure (SMILES): CC(=O)c1sc(Nc2ccccn2)nc1C
- EC50 [8]: > 79.4 µM (inactive)
- EC50 [9]: > 79.4 µM (not active)
- EC50 [10]: > 79.4 µM (not active)
- IC50 [11]: 40.3 µM (not active)

Structure (SMILES): Cc1cc(C(=O)O)ccc1-n1c(C)ccc1C
- IC50 (Estrogen receptor): 7.53 µM (active)
- IC50 [12]: 0.76 µM (active)
- IC50 (NS3): 6.25 µM (inactive)
- EC50 [13]: 5.94 µM (active)
- EC50 [14]: 8.59 µM (active)
